Experimental data as given in patent US20230102924A1, “Methods of Treating Cancer Using Checkpoint Inhibitors in Combination with Purine Cleaving Enzymes” (priority 2020, published 2023).
Entries after “also recorded” stand apart in the source; their conditions may differ.

Tests used:
[1] = system: EMT-6 tumors that express E. coli PNP; assay: EMT-6 murine breast tumors expressing E. coli PNP (left flank) in mice, fludarabine phosphate plus or minus anti-CTLA4-9H10; assay type: in vivo, female BALB/c mice
Method: (§1) In order to evaluate efficacy, the parental EMT-6-EMU cell line and the EMT-6-PNP-EMU transduced cell line were evaluated. The EMT-6-PNP-EMU transduced cell line and the parental EMT-6-EMU cell line were implanted as shown below in each flank with or without dosing with fludarabine phosphate and/or anti-CTLA-4 antibody using female BALB/c mice.
(§2) Mice were implanted with EMT-6 murine tumors on both the right and left flanks. In groups 1 through 6 the right flanks were implanted with parental (non-PNP) tumors and the left flanks were implanted with tumors expressing E. coli PNP. In groups 7 through 10, both the right and left flanks were injected with parental tumors.

[2] = system: EMT-6 tumors that do not express E. coli PNP; assay: Parental EMT-6 murine breast tumors (non-PNP) in mice, fludarabine phosphate plus or minus anti-CTLA4-9H10; assay type: in vivo, female BALB/c mice; conditions: for abscopal effect on a non-PNP tumor of a contralateral PNP tumor regressing due to F-araAMP: F-araAMP 90 mg/kg with anti-CTLA4-9H10
Method: as §1, §2

[3] = FIG. 3 and 5, day 15, right flank non-PNP tumors, PNP tumor contralaterally

For `Nc1nc(F)nc2c1ncn2[C@@H]1O[C@H](COP(=O)(O)O)[C@@H](O)[C@@H]1O` [fludarabine phosphate, 2-fluoro-9-(5-O-phosphono-β-D-arabinofuranosyl)-9H-purin-6-amine], the “effect on EMT-6 breast tumors that express E. coli PNP” value ([1]; FIG. 1, groups 1, 2, 4, 5, F-araAMP 75 mg/kg plus or minus anti-CTLA4-9H10, left flank tumors) was “effective”, the “effect on EMT-6 tumors that express E. coli PNP” value ([1]; FIG. 2, groups 1, 3, 4, 6, F-araAMP 90 mg/kg plus or minus anti-CTLA4-9H10, left flank tumors) was “effective” and the “PNP/fludarabine phosphate treatment in combination with an anti-CTLA4 antibody” value ([1]; summary of FIG. 1, 2, 3) was “improve”. For the same molecule, the “tumor growth, group 4 (anti-CTLA4 alone) versus group 6 (fludarabine 90 mg/kg + anti-CTLA4), all tumors included in the analysis” value [2, 3] was “not significantly different”, the “tumor growth, group 4 (anti-CTLA4 alone) versus group 6 (fludarabine 90 mg/kg + anti-CTLA4), regressed tumors removed from the analysis” value [2, 3] was “significantly different” and the “augmentation of anti-CTLA4 antibody antitumor activity in non-PNP tumors” value ([2]; FIG. 3 and 5, groups 1, 3, 4, 6, F-araAMP 90 mg/kg, PNP tumor regressing contralaterally) was “augments”. The “augmentation of anti-CTLA4 antibody activity in parental (non-PNP) tumors” value ([2]; FIG. 4 and 6, groups 7-10, F-araAMP 90 mg/kg, no PNP expression in the animal) was “augments; also recorded: enhances”, the “abscopal effect on a non-PNP tumor of a contralateral PNP tumor regressing due to F-araAMP” value ([2]; FIG. 7) was “strong abscopal effect; also recorded: inhibits” and the “abscopal effect on a non-PNP tumor of a contralateral PNP tumor regressing due to F-araAMP” value ([2]; FIG. 7, listed as F-araAMP) was “abscopal effect”.

B1: E. coli PNP: E. coli purine nucleoside phosphorylase expressed in the EMT-6-PNP-EMU transduced tumor cell line (protein, UniProt P0ABP8 2-239, looked up)
Purine nucleoside …: ATPHINAEMGDFADVVLMPGDPLRAKYIAETFLEDAREVNNVRGMLGFTGTYKGRKISVMGHGMGIPSCSIYTKELITDFGVKKIIRVGSCGAVLPHVKLRDVVIGMGACTDSKVNRIRFKDHDFAAIADFDMVRNAVDAAKALGIDARVGNLFSADLFYSPDGEMFDVMEKYGILGVEMEAAGIYGVAAEFGAKALTICTVSDHIRTHEQTTAAERQTTFNDMIKIALESVLLGDKE
B1 was tested, and the “effect of expressing E. coli PNP in a solid breast tumor on activity of checkpoint blockade inhibitors” value ([1]; summary of experiments) was “augments” and the “tumor growth, group 6 (non-PNP right flank tumor, PNP tumor contralaterally) versus group 10 (right) or group 10 (left)” value ([2]; FIG. 7, day 15, both groups F-araAMP 90 mg/kg + anti-CTLA4-9H10) was “significantly different”.
